Counter-ions that a name gives are not always drawn.
How the values were obtained:
sclerostin = target: T1, sclerostin (Homo sapiens, UniProt Q9BQB4); experiment: Modulation of sclerostin/Wnt activity (sclerostin inhibition assay): restoring Wnt3a signaling in the presence of sclerostin; type: cell-based; details: IC100 class; Wnt3a signaling in human embryonic cells in presence of sclerostin
T1 construct: host or cells: human embryonic cells (reporter cells)
T1 sequence (Q9BQB4 24-213): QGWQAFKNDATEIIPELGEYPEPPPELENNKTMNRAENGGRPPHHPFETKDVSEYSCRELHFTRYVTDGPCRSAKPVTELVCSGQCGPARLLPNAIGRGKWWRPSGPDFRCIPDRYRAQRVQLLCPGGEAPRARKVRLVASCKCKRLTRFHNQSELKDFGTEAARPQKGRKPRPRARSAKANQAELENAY

[1] = system: MC3T3-E1 (mouse calvarial) osteoblast cells; experiment: Rescue of sclerostin inhibition of mineralization (total calcium); type: cell-based; details: Mus musculus, MC3T3-E1; IC100 class; calcium concentration, MC3T3 osteoblast cells treated with sclerostin; read-out: Sclerostin Inhibition of Mineralization; improvement over sclerostin alone.
Protocol: Mineralization (crystalline calcium phosphate formation) represents an in vitro model of bone formation. […] Following the protocol described in Li et al., Compounds were assayed for their ability to rescue the inhibition of mineralization by sclerostin in MC3T3 osteoblast cells.

MC3T3 osteoblast cells = experiment: Osteocalcin (OCN) secretion, bone formation marker, ELISA; type: cell-based, mouse; details: Mus musculus; IC100 class; OCN secreted from MC3T3 osteoblast cells treated with sclerostin
Protocol: Bone formation can also be assayed in vitro or in vivo using a serum marker for bone formation, osteocalcin (OCN), available from Biomedical Tecnhnologies, Inc. (Stoughton, Mass.). Following the manufacturer's protocol for the mouse osteocalcin EIA kit (described at the website www.btiinc.com/page/cata2.html#mouse_osteocalcin), bone formation in MC3T3 osteoblast cells was assayed by measuring the concentration of OCN.

hERG potassium channel = target: T2, hERG potassium channel (Homo sapiens, UniProt Q12809); experiment: hERG automated patch clamp assay; type: cell-based; details: inhibition of hERG tail current, 5 minutes at room temperature, CHO-K1 cells stably expressing hERG
T2 construct: expressed in transfected cells; host or cells: CHO-K1
T2 sequence (Q12809 whole entry): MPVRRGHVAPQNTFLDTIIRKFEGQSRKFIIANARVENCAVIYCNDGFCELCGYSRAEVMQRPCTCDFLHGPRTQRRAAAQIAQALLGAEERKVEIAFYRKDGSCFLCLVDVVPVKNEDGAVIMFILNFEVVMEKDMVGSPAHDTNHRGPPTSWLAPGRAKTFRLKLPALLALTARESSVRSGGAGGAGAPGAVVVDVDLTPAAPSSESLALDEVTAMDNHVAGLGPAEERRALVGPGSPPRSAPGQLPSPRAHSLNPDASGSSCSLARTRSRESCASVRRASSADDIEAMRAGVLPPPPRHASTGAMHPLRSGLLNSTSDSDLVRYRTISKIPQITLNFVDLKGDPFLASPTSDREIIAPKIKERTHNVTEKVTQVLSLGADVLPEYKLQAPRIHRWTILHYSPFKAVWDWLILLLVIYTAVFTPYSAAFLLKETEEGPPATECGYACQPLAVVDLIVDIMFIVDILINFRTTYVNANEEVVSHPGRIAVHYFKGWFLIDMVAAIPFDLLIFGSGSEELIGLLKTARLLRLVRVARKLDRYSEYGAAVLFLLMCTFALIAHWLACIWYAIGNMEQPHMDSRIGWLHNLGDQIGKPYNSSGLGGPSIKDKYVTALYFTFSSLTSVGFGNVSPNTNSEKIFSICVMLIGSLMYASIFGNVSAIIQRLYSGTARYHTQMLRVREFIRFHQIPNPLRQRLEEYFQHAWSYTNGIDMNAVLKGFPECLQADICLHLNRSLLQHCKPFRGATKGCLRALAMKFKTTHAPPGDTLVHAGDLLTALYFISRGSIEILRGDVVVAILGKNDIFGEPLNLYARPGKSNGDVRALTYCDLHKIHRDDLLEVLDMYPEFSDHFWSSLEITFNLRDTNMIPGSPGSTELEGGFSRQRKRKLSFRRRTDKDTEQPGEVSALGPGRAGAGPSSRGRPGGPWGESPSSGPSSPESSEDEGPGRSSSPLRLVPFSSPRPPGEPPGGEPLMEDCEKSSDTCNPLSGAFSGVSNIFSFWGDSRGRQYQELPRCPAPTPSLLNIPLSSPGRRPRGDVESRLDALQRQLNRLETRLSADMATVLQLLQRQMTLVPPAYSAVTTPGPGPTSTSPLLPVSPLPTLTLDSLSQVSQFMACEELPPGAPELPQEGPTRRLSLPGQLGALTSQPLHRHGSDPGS
Protocol: One major type of cardiovascular toxicity associated with pharmaceutical drugs is caused by drug effects on cardiac ion channels like hERG. Drug-induced inhibition of hERG results in a prolonged QT interval, which can lead to a life-threatening ventricular arrhythmia. Therefore, the inhibitory effect of compounds described in Examples 1-46 on the hERG potassium channel was evaluated using an automated patch clamp assay as described in Mathes, C. (2006) Expert Opin. Ther. Targets, 10 (2): 319-327. CHO-K1 cells stably expressing hERG channels were used.

## COc1ccc2c3ccnc(C(F)(F)F)c3n(CCN(CCO)CCO)c2c1 [Example 35, 2,2′-((2-(7-methoxy-1-(trifluoromethyl)-9H-pyrido[3,4-b]indol-9-yl)ethyl)azanediyl)diethanol]
sclerostin
  Sclerostin Inhibition Assay; improvement over sclerostin alone.: ++ (++ indicates an IC100 < 10 μM)
[1]
  IC100: < 10 µM
MC3T3 osteoblast cells
  IC100: < 10 µM
hERG potassium channel
  hERG (1uM): + (+ indicates less than 50% inhibition of hERG tail current)

## COc1ccc2c3ccnc(C)c3n(CCCN3CCNCC3)c2c1 [Example 17, 7-methoxy-1-methyl-9-(3-(piperazin-1-yl)propyl)-9H-pyrido[3,4-b]indole trifluoroacetate]
sclerostin
  Sclerostin Inhibition Assay; improvement over sclerostin alone.: ++ (++ indicates an IC100 < 10 μM)
[1]
  IC100: < 10 µM
MC3T3 osteoblast cells
  IC100: < 10 µM
hERG potassium channel
  hERG (1uM): + (+ indicates less than 50% inhibition of hERG tail current)

## COc1ccc2c3ccnc(C)c3n(CCN3CCOCC3)c2c1 [Example 12, 4-(2-(7-methoxy-1-methyl-9H-pyrido[3,4-b]indol-9-yl)ethyl)morpholine]
sclerostin
  Sclerostin Inhibition Assay; improvement over sclerostin alone.: ++ (++ indicates an IC100 < 10 μM)
[1]
  IC100: < 10 µM
MC3T3 osteoblast cells
  IC100: < 10 µM
hERG potassium channel
  hERG (1uM): + (+ indicates less than 50% inhibition of hERG tail current)

## COc1ccc2c3ccnc(C(F)(F)F)c3n(CC(C)N(C)C)c2c1 (stereo not shown) [Example 27, 1-(7-methoxy-1-(trifluoromethyl)-9H-pyrido[3,4-b]indol-9-yl)-N,N-dimethylpropan-2-amine]
sclerostin
  Sclerostin Inhibition Assay; improvement over sclerostin alone.: ++ (++ indicates an IC100 < 10 μM)
[1]
  IC100: < 10 µM
MC3T3 osteoblast cells
  IC100: < 10 µM
hERG potassium channel
  hERG (1uM): + (+ indicates less than 50% inhibition of hERG tail current)

## CC1(C)COCCN1CCn1c2cc(O)ccc2c2ccnc(C(F)(F)F)c21 [Example 32, 9-(2-(3,3-dimethylmorpholino)ethyl)-1-(trifluoromethyl)-9H-pyrido[3,4-b]indol-7-ol]
sclerostin
  Sclerostin Inhibition Assay; improvement over sclerostin alone.: ++ (++ indicates an IC100 < 10 μM)
[1]
  IC100: < 10 µM
MC3T3 osteoblast cells
  IC100: < 10 µM
hERG potassium channel
  hERG (1uM): + (+ indicates less than 50% inhibition of hERG tail current)

## Cc1nccc2c3ccc(O)cc3n(CCN3CCOCC3)c12 [Example 13, 1-methyl-9-(2-morpholinoethyl)-9H-pyrido[3,4-b]indol-7-ol]
sclerostin
  Sclerostin Inhibition Assay; improvement over sclerostin alone.: ++ (++ indicates an IC100 < 10 μM)
[1]
  IC100: < 10 µM
MC3T3 osteoblast cells
  IC100: < 10 µM
hERG potassium channel
  hERG (1uM): + (+ indicates less than 50% inhibition of hERG tail current)

## COc1ccc2c3ccnc(C)c3n(CCN(C)CCO)c2c1 [Example 18, 2-((2-(7-methoxy-1-methyl-9H-pyrido[3,4-b]indol-9-yl)ethyl)(methyl)amino)ethanol]
sclerostin
  Sclerostin Inhibition Assay; improvement over sclerostin alone.: ++ (++ indicates an IC100 < 10 μM)
[1]
  IC100: < 10 µM
MC3T3 osteoblast cells
  IC100: < 10 µM
hERG potassium channel
  hERG (1uM): + (+ indicates less than 50% inhibition of hERG tail current)

## COc1ccc2c3ccnc(C)c3n(CCCN3CCOCC3)c2c1 [Example 11, 4-(3-(7-methoxy-1-methyl-9H-pyrido[3,4-b]indol-9-yl)propyl)morpholine formate]
sclerostin
  Sclerostin Inhibition Assay; improvement over sclerostin alone.: ++ (++ indicates an IC100 < 10 μM)
[1]
  IC100: < 10 µM
MC3T3 osteoblast cells
  IC100: < 10 µM
hERG potassium channel
  hERG (1uM): + (+ indicates less than 50% inhibition of hERG tail current)

## COc1ccc2c3ccnc(C)c3n(CC(C)N(C)C)c2c1 (stereo not shown) [Example 3, 1-(7-methoxy-1-methyl-9H-pyrido[3,4-b]indol-9-yl)-N,N-dimethylpropan-2-aminium formate]
sclerostin
  Sclerostin Inhibition Assay; improvement over sclerostin alone.: ++ (++ indicates an IC100 < 10 μM)
[1]
  IC100: < 10 µM
MC3T3 osteoblast cells
  IC100: < 10 µM
hERG potassium channel
  hERG (1uM): + (+ indicates less than 50% inhibition of hERG tail current)

## COc1ccc2c(c1)[nH]c1c(C(F)(F)F)nccc12 [Example 22, 7-methoxy-1-(trifluoromethyl)-9H-pyrido[3,4-b]indole]
sclerostin
  Sclerostin Inhibition Assay; improvement over sclerostin alone.: ++ (++ indicates an IC100 < 10 μM)
[1]
  IC100: < 10 µM
MC3T3 osteoblast cells
  IC100: < 10 µM
hERG potassium channel
  hERG (1uM): + (+ indicates less than 50% inhibition of hERG tail current)

## Cc1nccc2c3ccc(O)cc3n(CC(C)N(C)C)c12 (stereo not shown) [Example 4, 9-(2-(dimethylamino)propyl)-1-methyl-9H-pyrido[3,4-b]indol-7-ol]
sclerostin
  Sclerostin Inhibition Assay; improvement over sclerostin alone.: ++ (++ indicates an IC100 < 10 μM)
[1]
  IC100: < 10 µM
MC3T3 osteoblast cells
  IC100: < 10 µM
hERG potassium channel
  hERG (1uM): + (+ indicates less than 50% inhibition of hERG tail current)

## CC(Cn1c2ccccc2c2cccnc21)N(C)C (stereo not shown) [Example 1, N,N-dimethyl-1-(9H-pyrido[2,3-b]indol-9-yl)propan-2-amine]
sclerostin
  Sclerostin Inhibition Assay; improvement over sclerostin alone.: + (+ indicates an IC100 > 10 μM)
[1]
  IC100: > 10 µM
MC3T3 osteoblast cells
  IC100: > 10 µM
hERG potassium channel
  hERG (1uM): + (+ indicates less than 50% inhibition of hERG tail current)

## COc1ccc2c(c1)[nH]c1c(C)ccnc12 [Example 37, 7-methoxy-4-methyl-5H-pyrido[3,2-b]indole]
sclerostin
  Sclerostin Inhibition Assay; improvement over sclerostin alone.: ++ (++ indicates an IC100 < 10 μM)
[1]
  IC100: < 10 µM
MC3T3 osteoblast cells
  IC100: < 10 µM
hERG potassium channel
  hERG (1uM): + (+ indicates less than 50% inhibition of hERG tail current)

## COc1ccc2c(c1)[nH]c1c(C)nc(OC)cc12 [Example 40, 3,7-dimethoxy-1-methyl-9H-pyrido[3,4-b]indole]
sclerostin
  Sclerostin Inhibition Assay; improvement over sclerostin alone.: ++ (++ indicates an IC100 < 10 μM)
[1]
  IC100: < 10 µM
MC3T3 osteoblast cells
  IC100: < 10 µM
hERG potassium channel
  hERG (1uM): + (+ indicates less than 50% inhibition of hERG tail current)

## COc1ccc2c3ccnc(C(F)(F)F)c3n(CCN3CCOCC3)c2c1 [Example 25, 4-(2-(7-methoxy-1-(trifluoromethyl)-9H-pyrido[3,4-b]indol-9-yl)ethyl) morpholine]
sclerostin
  Sclerostin Inhibition Assay; improvement over sclerostin alone.: ++ (++ indicates an IC100 < 10 μM)
[1]
  IC100: < 10 µM
MC3T3 osteoblast cells
  IC100: < 10 µM
hERG potassium channel
  hERG (1uM): + (+ indicates less than 50% inhibition of hERG tail current)

## COc1ccc2c3ccnc(C)c3n(CC(C)N3CCOCC3)c2c1 (stereo not shown) [Example 8, 4-(1-(7-methoxy-1-methyl-9H-pyrido[3,4-b]indol-9-yl)propan-2-yl) morpholine]
sclerostin
  Sclerostin Inhibition Assay; improvement over sclerostin alone.: ++ (++ indicates an IC100 < 10 μM)
[1]
  IC100: < 10 µM
MC3T3 osteoblast cells
  IC100: < 10 µM
hERG potassium channel
  hERG (1uM): + (+ indicates less than 50% inhibition of hERG tail current)

## COc1ccc2c3ccnc(C)c3n(CC(C)N3CCCCC3)c2c1 (stereo not shown) [Example 9, 7-methoxy-1-methyl-9-(2-(piperidin-1-yl)propyl)-9H-pyrido[3,4-b]indole]
sclerostin
  Sclerostin Inhibition Assay; improvement over sclerostin alone.: ++ (++ indicates an IC100 < 10 μM)
[1]
  IC100: < 10 µM
MC3T3 osteoblast cells
  IC100: < 10 µM
hERG potassium channel
  hERG (1uM): + (+ indicates less than 50% inhibition of hERG tail current)

## COc1ccc2c(c1)[nH]c1c(C)[n+]([O-])ccc12 [Example 21, 7-methoxy-1-methyl-9H-pyrido[3,4-b]indole pyridine N-oxide]
sclerostin
  Sclerostin Inhibition Assay; improvement over sclerostin alone.: + (+ indicates an IC100 > 10 μM)
[1]
  IC100: > 10 µM
MC3T3 osteoblast cells
  IC100: > 10 µM
hERG potassium channel
  hERG (1uM): + (+ indicates less than 50% inhibition of hERG tail current)

## COc1ccc2c3ccnc(C)c3n(CCN3CCCCC3)c2c1 [Example 10, 7-methoxy-1-methyl-9-(2-(piperidin-1-yl)ethyl)-9H-pyrido[3,4-b]indole]
sclerostin
  Sclerostin Inhibition Assay; improvement over sclerostin alone.: ++ (++ indicates an IC100 < 10 μM)
[1]
  IC100: < 10 µM
MC3T3 osteoblast cells
  IC100: < 10 µM
hERG potassium channel
  hERG (1uM): + (+ indicates less than 50% inhibition of hERG tail current)

## COc1ccc2c3ccnc(C)c3n(C(C)CN(C)C)c2c1 (stereo not shown) [Example 5, 2-(7-methoxy-1-methyl-9H-pyrido[3,4-b]indol-9-yl)-N,N-dimethylpropan-1-amine]
sclerostin
  Sclerostin Inhibition Assay; improvement over sclerostin alone.: ++ (++ indicates an IC100 < 10 μM)
[1]
  IC100: < 10 µM
MC3T3 osteoblast cells
  IC100: < 10 µM

## Cc1nc(O)cc2c1[nH]c1cc(O)ccc12 [Example 20, 1-methyl-9H-pyrido[3,4-b]indole-3,7-diol]
sclerostin
  Sclerostin Inhibition Assay; improvement over sclerostin alone.: + (+ indicates an IC100 > 10 μM)
[1]
  IC100: > 10 µM
MC3T3 osteoblast cells
  IC100: > 10 µM

## CC1COCCN1CCn1c2cc(O)ccc2c2ccnc(C(F)(F)F)c21 (stereo not shown) [Example 30, 9-(2-(3-methylmorpholino)ethyl)-1-(trifluoromethyl)-9H-pyrido[3,4-b] indol-7-ol]
sclerostin
  Sclerostin Inhibition Assay; improvement over sclerostin alone.: ++ (++ indicates an IC100 < 10 μM)
[1]
  IC100: < 10 µM
MC3T3 osteoblast cells
  IC100: < 10 µM

## Cc1nccc2c1[nH]c1cc(OC(F)F)ccc12 [Example 45, 7-(difluoromethoxy)-1-methyl-9H-pyrido[3,4-b]indole]
sclerostin
  Sclerostin Inhibition Assay; improvement over sclerostin alone.: ++ (++ indicates an IC100 < 10 μM)
[1]
  IC100: < 10 µM
MC3T3 osteoblast cells
  IC100: < 10 µM
